# What was measured:
# [1] = NRU cell viability assay, A431; format: cell-based, human; details: human, A431 cells (squamous cell carcinoma), highest tested concentration (250 µg/mL)
# Experimental: (§1) The murine Swiss albino fibroblast (3T3), the immortal human keratinocyte (HaCaT), the squamous cell carcinoma (A431), the human epithelial carcinoma (HeLa) and the human breast adenocarcinoma (MCF-7) cell lines were sourced from Celltec UB (Barcelona, Spain). All cells were maintained and grown in DMEM medium (4.5 g/L glucose) supplemented with 10% (v/v) FBS, 2 mM L-glutamine, 100 U/mL penicillin and 100 μg/mL streptomycin at 37 °C, 5% CO2. Cells were routinely cultured in 75 cm^2 culture flasks and were trypsinized using trypsin-EDTA when the cells reached approximately 80%. Cell concentration in the resulting suspension was assessed using the trypan blue assay, which enables direct discrimination between viable (unstained) and non-viable (blue) cells.
# (§2) T3 and HaCaT cells (1 × 10^5 cells/mL), along with A431, HeLa, and MCF-7 cells (5 × 10^4 cells/mL), were cultured at defined seeding densities in the 60 central wells of a 96-well plate. Cells were first incubated for 24 h under standard incubator conditions (5% CO2, 37 °C). After this period, the culture medium was removed, and the cells were incubated for an additional 24 h with their corresponding compound solutions (1 mg/mL) previously diluted in a minimum amount of DMF (dimethylformamide) and then in DMEM medium supplemented with 5% FBS (100 µL) at the required concentration range (20 to 250 µg/mL). Cell viability following exposure to the lactam derivatives was evaluated using two complementary assays: NRU and MTT.
# (§3) The neutral red uptake (NRU) assay is based on the accumulation of dye in the lysosomes of viable cells. After the cells were incubated for 24 h with the corresponding systems, the medium was removed, and the solutions were incubated with the NR dye (Sigma-Aldrich, St. Louis, MO, USA) solution (50 µg/mL) dissolved in the medium, without FBS and without phenol red (Lonza, Verviers, Belgium), for 3 h. Cells were then washed with sterile PBS, followed by the addition of 100 µL of a solution containing 50% absolute ethanol and 1% acetic acid in distilled water to extract the dye. To promote the total dissolution of the dye, plates were placed in a microtiter-plate shaker for 5 min at room temperature. The absorbance of the resulting solutions was measured at 550 nm (Bio-Rad 550 microplate reader, Bio-Rad California, Hercules, CA, USA). Finally, the effect of each treatment was calculated as the percentage of dye uptake by viable cells relative to the control cells (cells without any treatment). Finally, the effect of each treatment was calculated as the percentage of dye retained by viable cells compared with untreated control cells.
# (§4) The half-maximal inhibitory concentration (IC50) values for the different formulations, across cell lines and experimental endpoints, were obtained by fitting the concentration-dependent viability curves. […] These findings reflect the very low cytotoxicity of the compounds toward these cell lines.
# [2] = NRU cell viability assay, HeLa; format: cell-based, human; details: human, HeLa cells (epithelial carcinoma), highest tested concentration (250 µg/mL)
# Experimental: as §1, §2, §3, §4
# [3] = NRU cell viability assay, MCF-7; format: cell-based, human; details: human, MCF-7 cells (breast adenocarcinoma), MCF-7, NRU, highest tested concentration (250 µg/mL)
# Experimental: as §1, §2, §3, §4
# [4] = Fish Embryo Acute Toxicity (FET) assay: lethality and dysmorphogenesis; format: in vivo; details: zebrafish (Danio rerio), in vivo; zebrafish embryos exposed 2 to 72 hpf, 1.95-125 µg/mL; read-out: LC50 (lethal concentration 50)
# Experimental: (§5) (2 mM CaCl2·2H2O; 0.5 mM MgSO4·7H2O; 0.75 mM NaHCO3; 0.07 mM KCl). The fish were maintained at a temperature of 26 ± 1 °C on a 14 h light and 10 h dark cycle and were daily fed in the morning with Artemia salina, and with commercial flake food in the afternoon (SDS400, Special Diet Services, Dietex, France). The day before eggs were needed, males and females were placed in a breeding tank with plants at a 2:1 male-to-female ratio. The following morning, eggs were collected 30 min after the lights were turned on. […] Fertilized, non-coagulated, and synchronously divided eggs were selected using a stereomicroscope (Motic SMZ168, Motic China group, Ltd., Xiamen, China) and transferred to 6-well plates (10 embryos/well). Embryos were exposed to freshly prepared tested concentrations of the compound in 0.3× Danieau’s solution. Chemical stock solution was prepared in 100% dimethylsulfoxide (DMSO) and subsequently diluted in Danieau’s buffer with a final DMSO concentration of 1% (v/v). Test was carried out using five concentrations with a negative control, solvent control with 1% of DMSO. Embryos were incubated at 27 ± 1 °C with a light–dark cycle of 14:10 h until 72 h post-fertilization (hpf) under semi-static conditions, as exposure solutions were renewed by freshly prepared solutions every 24 h.
# (§6) At 24, 48 and 72 hpf embryos were observed under a stereomicroscope to assess lethality. […] At the end of the test, dysmorphogenesis was evaluated in live embryos only. The average lethality and dysmorphogenesis were calculated for 10 embryos per concentration, followed by averaging the results of at least three independent experiments. […] The Teratogenic Index (TI) was deter-mined as the ratio between the LC50 and EC50 (TI = LC50/EC50).
# zebrafish embryos = assay: as above; format: in vivo; details: for EC50: Danio rerio, read-out: EC50 (dysmorphogenesis); for teratogenicity classification: TI > 2; for Teratogenic Index (TI = LC50/EC50): zebrafish embryos
# Experimental: as §5, §6
SMILES,"viability at 24 h, 250 µg/mL [1]","viability at 24 h, 250 µg/mL [2]","viability at 24 h, 250 µg/mL [3]",LC50 [4],EC50 (zebrafish embryos),teratogenicity classification (zebrafish embryos),Teratogenic Index (TI = LC50/EC50) (zebrafish embryos),embryos exhibiting morphological abnormalities (zebrafish embryos; at 15.6 µg/mL)
"C[C@@H]1CN([C@@H](C)c2ccccc2)C(=O)C1(Cl)Cl [Compound 3, (R)-3,3-dichloro-4-methyl-1-((S)-1-phenylethyl)pyrrolidin-2-one]",20 to 30%,20 to 30%,20 to 30%,63.8 µg/mL,18.3 µg/mL,potential teratogens,3.5,
C[C@H](c1ccccc1)N1C[C@H](C)C(Cl)(Cl)C1=O [Compound 4],,,,33.2 µg/mL,11.2 µg/mL,potential teratogens,2.95,more than 20%

# Reference: PMC12736018, “Stereoselective Cytotoxicity of Enantiopure 3,3-Dichloro-γ-lactams: Correlating In Vitro Activity with In Vivo Tolerability” (Molecules, 2025)
